According to PubChem BioAssay AID338 (DTP/NCI, 2004):
Where “and” joins values, the source holds several entries; their conditions need not be identical. Identical values can stand only once. Inconclusive results and toxic doses are left out.

Test system: BDF1 mice, P388 leukemia (terephthalanilide-resistant), survival T/C
Experiment: NCI In Vivo Anticancer Drug Screen. Data for tumor model P388 Leukemia resistant to A Terephthalanilide; NSC 38280 (intraperitoneal) in B6D2F1 (BDF1) mice
Conditions: endpoint: median survival time, higher = longer survival
Method: The antitumor activity of compounds was measured in mice bearing transplantable tumors. Survival or tumor size were measured and the results are expressed as the measurement made in the treated group (T) divided by the measurement made in the vehicle treated control group (C). The tumor model used in this assay is P388 Leukemia resistant to A Terephthalanilide; NSC 38280 (intraperitoneal) in B6D2F1 (BDF1) mice

[1] = dose: 25.0 mg/kg/injection, schedule: Q01DX010 (ip), vehicle: saline
[2] = dose: 50.0 mg/kg/injection, schedule: Q01DX010 (ip), vehicle: saline
[3] = dose: 100.0 mg/kg/injection, schedule: Q01DX010 (ip), vehicle: saline
[4] = dose: 60.0 mg/kg/injection, schedule: Q01DX010 (ip), vehicle: saline
[5] = dose: 2.5 mg/kg/injection, schedule: Q01DX010 (ip), vehicle: saline
[6] = dose: 5.0 mg/kg/injection, schedule: Q01DX010 (ip), vehicle: saline
[7] = dose: 62.5 mg/kg/injection, schedule: Q01DX010 (ip), vehicle: saline
[8] = dose: 125.0 mg/kg/injection, schedule: Q01DX010 (ip), vehicle: saline
[9] = dose: 75.0 mg/kg/injection, schedule: Q01DX010 (ip), vehicle: saline
[10] = dose: 12.0 mg/kg/injection, schedule: Q01DX010 (ip), vehicle: saline
[11] = dose: 18.0 mg/kg/injection, schedule: Q01DX010 (ip), vehicle: saline
[12] = dose: 27.0 mg/kg/injection, schedule: Q01DX010 (ip), vehicle: saline
[13] = dose: 16.0 mg/kg/injection, schedule: Q01DX010 (ip), vehicle: saline
[14] = dose: 64.0 mg/kg/injection, schedule: Q01DX010 (ip), vehicle: saline
[15] = dose: 0.25 mg/kg/injection, schedule: Q01DX010 (ip), vehicle: saline
[16] = dose: 8.0 mg/kg/injection, schedule: Q01DX010 (ip), vehicle: saline
[17] = dose: 2.0 mg/kg/injection, schedule: Q01DX010 (ip), vehicle: saline
[18] = dose: 4.0 mg/kg/injection, schedule: Q01DX010 (ip), vehicle: saline
[19] = dose: 12.5 mg/kg/injection, schedule: Q01DX010 (ip), vehicle: saline
[20] = dose: 40.0 mg/kg/injection, schedule: Q01DX010 (ip), vehicle: saline
[21] = dose: 20.0 mg/kg/injection, schedule: Q01DX010 (ip), vehicle: saline
[22] = dose: 10.0 mg/kg/injection, schedule: Q01DX010 (ip), vehicle: saline

CSc1ncnc2nc[nH]c12
T/C [1]: 104 % of control and 105 % of control | T/C [2]: 100 % of control and 104 % of control | T/C [3]: 100 % of control | T/C (dose: 200.0 mg/kg/injection, schedule: Q01DX010 (ip), vehicle: saline): 105 % of control and 109 % of control

CC/C(=C(/CC)c1ccc(O)cc1)c1ccc(O)cc1
T/C (dose: 12.5 mg/kg/injection, schedule: Q01DX010 (sc), vehicle: steriod suspending solution): 90 % of control | T/C (dose: 25.0 mg/kg/injection, schedule: Q01DX010 (sc), vehicle: steriod suspending solution): 90 % of control | T/C (dose: 100.0 mg/kg/injection, schedule: Q01DX010 (sc), vehicle: steriod suspending solution): 90 % of control

Clc1ncnc2nc[nH]c12
T/C (dose: 7.5 mg/kg/injection, schedule: Q01DX010 (ip), vehicle: saline): 87 % of control | T/C (dose: 15.0 mg/kg/injection, schedule: Q01DX010 (ip), vehicle: saline): 87 % of control and 93 % of control | T/C (dose: 30.0 mg/kg/injection, schedule: Q01DX010 (ip), vehicle: saline): 87 % of control and 106 % of control | T/C [4]: 93 % of control

S=P(N1CCOCC1)(N1CC1)N1CC1
T/C [5]: 105 % of control and 111 % of control | T/C [6]: 94 % of control and 105 % of control

CCn1cnc2c(=S)nc[nH]c21
T/C (dose: 15.6 mg/kg/injection, schedule: Q01DX010 (ip), vehicle: saline): 100 % of control and 105 % of control | T/C (dose: 31.3 mg/kg/injection, schedule: Q01DX010 (ip), vehicle: saline): 105 % of control and 110 % of control | T/C [7]: 94 % of control and 100 % of control | T/C [8]: 110 % of control

CS(=O)(=O)OCCCl
T/C (dose: 18.8 mg/kg/injection, schedule: Q01DX010 (ip), vehicle: saline): 105 % of control | T/C (dose: 37.5 mg/kg/injection, schedule: Q01DX010 (ip), vehicle: saline): 110 % of control and 111 % of control | T/C [9]: 111 % of control and 115 % of control | T/C (dose: 150.0 mg/kg/injection, schedule: Q01DX010 (ip), vehicle: saline): 110 % of control and 122 % of control

C[n+]1c2ccccc2nc2c(N)cc(N)cc21
T/C [10]: 100 % of control | T/C [11]: 100 % of control | T/C [12]: 91 % of control

CCN(CC)CCNc1ccc(C)c2sc3ccccc3c(=O)c12
T/C [1]: 105 % of control and 122 % of control | T/C [3]: 100 % of control

Nc1cc(C(=O)Nc2ccc(C3=NCCN3)cc2)cc(C(=O)Nc2ccc(C3=NCCN3)cc2)c1
T/C [13]: 111 % of control | T/C [14]: 183 % of control

C1CN1c1nc(N2CC2)nc(N2CC2)n1
T/C (dose: 0.13 mg/kg/injection, schedule: Q01DX010 (ip), vehicle: saline): 94 % of control and 100 % of control | T/C [15]: 105 % of control and 116 % of control | T/C (dose: 0.5 mg/kg/injection, schedule: Q01DX010 (ip), vehicle: saline): 116 % of control | T/C (dose: 1.0 mg/kg/injection, schedule: Q01DX010 (ip), vehicle: saline): 111 % of control

O=C(Nc1ccc(C2=NCCN2)cc1)c1ccc(C(=O)Nc2ccc(C3=NCCN3)cc2)cc1
T/C [9]: 116 % of control | T/C (dose: 167.0 mg/kg/injection, schedule: Q01DX010 (ip), vehicle: saline): 122 % of control

CCCNC(=NC)c1ccc(NC(=O)c2ccc(C(=O)Nc3ccc(C(=NC)NCCC)cc3)cc2)cc1
T/C (dose: 5.2 mg/kg/injection, schedule: Q01DX010 (ip), vehicle: saline): 100 % of control | T/C [16]: 100 % of control | T/C [10]: 111 % of control | T/C [11]: 111 % of control

Nc1nc(=S)c2ncn(C3OC(CO)C(O)C3O)c2[nH]1 (stereo not drawn)
T/C [17]: 109 % of control | T/C [18]: 104 % of control | T/C [16]: 105 % of control | T/C [13]: 105 % of control

N=[N+]=CC(=O)OCC(N)C(=O)O (stereo not drawn)
T/C [19]: 115 % of control and 116 % of control | T/C [1]: 88 % of control

CC1CN=C(c2ccc(NC(=O)c3cccc(C(=O)Nc4ccc(C5=NCC(C)N5)cc4)c3)cc2)N1 (stereo not drawn)
T/C [10]: 100 % of control | T/C [11]: 100 % of control | T/C [12]: 100 % of control | T/C [20]: 88 % of control

OCC1OC(n2cnc3c(Cl)ncnc32)C(O)C1O (stereo not drawn)
T/C [7]: 94 % of control | T/C [8]: 100 % of control | T/C (dose: 250.0 mg/kg/injection, schedule: Q01DX010 (ip), vehicle: saline): 90 % of control and 94 % of control | T/C (dose: 500.0 mg/kg/injection, schedule: Q01DX010 (ip), vehicle: saline): 90 % of control and 111 % of control

OCC1OC(n2cnc3c(=S)nc[nH]c32)C(O)C1O (stereo not drawn)
T/C [21]: 90 % of control and 111 % of control | T/C [20]: 100 % of control and 105 % of control | T/C (dose: 80.0 mg/kg/injection, schedule: Q01DX010 (ip), vehicle: saline): 116 % of control | T/C (dose: 160.0 mg/kg/injection, schedule: Q01DX010 (ip), vehicle: saline): 110 % of control

O=c1[nH]cc(F)c(=O)[nH]1
T/C [6]: 120 % of control | T/C [22]: 150 % of control and 183 % of control | T/C [21]: 170 % of control and 222 % of control | T/C [20]: 95 % of control and 111 % of control

CC[C@]1(O)C[C@H]2CN(CCc3c([nH]c4ccccc34)[C@@](C(=O)OC)(c3cc4c(cc3OC)N(C=O)[C@H]3[C@@](O)(C(=O)OC)[C@H](OC(C)=O)[C@]5(CC)C=CCN6CC[C@]43[C@@H]65)C2)C1
T/C (dose: 0.03 mg/kg/injection, schedule: Q01DX010 (ip), vehicle: saline): 105 % of control | T/C (dose: 0.03 mg/kg/injection, schedule: Q01DX Z (ip), vehicle: saline): 90 % of control and 100 % of control | T/C (dose: 0.06 mg/kg/injection, schedule: Q01DX010 (ip), vehicle: saline): 100 % of control | T/C (dose: 0.06 mg/kg/injection, schedule: Q01DX Z (ip), vehicle: saline): 95 % of control | T/C (dose: 0.12 mg/kg/injection, schedule: Q01DX010 (ip), vehicle: saline): 111 % of control | T/C (dose: 0.13 mg/kg/injection, schedule: Q01DX Z (ip), vehicle: saline): 100 % of control | T/C [15]: 94 % of control | T/C (dose: 0.25 mg/kg/injection, schedule: Q01DX Z (ip), vehicle: saline): 100 % of control | T/C (dose: 0.5 mg/kg/injection, schedule: Q01DX Z (ip), vehicle: saline): 95 % of control and 100 % of control

CC(CCC(C)OS(C)(=O)=O)OS(C)(=O)=O (stereo not drawn)
T/C [17]: 90 % of control and 95 % of control | T/C [18]: 95 % of control and 100 % of control | T/C [16]: 100 % of control | T/C [13]: 86 % of control and 100 % of control

CN(C)c1ccc(/C=C\c2ccnc3ccccc23)cc1
T/C (dose: 1.5 mg/kg/injection, schedule: Q01DX010 (ip), vehicle: saline): 91 % of control | T/C [10]: 91 % of control

CS(=O)(=O)OCCCCOS(C)(=O)=O
T/C (dose: 6.25 mg/kg/injection, schedule: Q01DX010 (ip), vehicle: saline): 87 % of control and 100 % of control | T/C [19]: 100 % of control and 106 % of control | T/C [1]: 87 % of control and 100 % of control | T/C [2]: 106 % of control

O=C(Nc1ccc(C2=NCCN2)cc1)c1ccc(NC(=O)c2ccc(C3=NCCN3)cc2)cc1
T/C [11]: 100 % of control | T/C [12]: 100 % of control | T/C [20]: 100 % of control | T/C [4]: 100 % of control

O=P1(N(CCCl)CCCl)NCCCO1 (stereo not drawn)
T/C (dose: 11.3 mg/kg/injection, schedule: Q01DX005 (ip), vehicle: saline): 100 % of control and 109 % of control | T/C (dose: 11.3 mg/kg/injection, schedule: Q01DX010 (ip), vehicle: saline): 111 % of control | T/C (dose: 22.5 mg/kg/injection, schedule: Q01DX005 (ip), vehicle: saline): 118 % of control and 122 % of control | T/C (dose: 45.0 mg/kg/injection, schedule: Q01DX005 (ip), vehicle: saline): 154 % of control | T/C (dose: 45.0 mg/kg/injection, schedule: Q01DX010 (ip), vehicle: saline): 183 % of control | T/C (dose: 90.0 mg/kg/injection, schedule: Q01DX005 (ip), vehicle: saline): 272 % of control | T/C (dose: 90.0 mg/kg/injection, schedule: Q01DX010 (ip), vehicle: saline): 105 % of control | T/C (dose: 180.0 mg/kg/injection, schedule: Q01DX010 (ip), vehicle: saline): 88 % of control

O=C(Nc1ccc(C2=NCCN2)cc1)c1cccc(C(=O)Nc2ccc(C3=NCCN3)cc2)c1
T/C [16]: 112 % of control | T/C [14]: 150 % of control

Oc1cc(CN(CCCl)CCCl)c(O)cc1CN(CCCl)CCCl
T/C (dose: 0.63 mg/kg/injection, schedule: Q01DX010 (ip), vehicle: saline): 116 % of control | T/C (dose: 1.25 mg/kg/injection, schedule: Q01DX010 (ip), vehicle: saline): 100 % of control and 116 % of control | T/C [5]: 100 % of control and 116 % of control | T/C [6]: 100 % of control and 116 % of control | T/C [22]: 110 % of control
